# Patent US12397037B2, “Methods and compositions for immunomodulation” (CHILDREN'S MEDICAL CENTER CORPORATION, priority 2014, dated 2025)
# Legend:
# U87MG cells = assay: Western blot of PI-3K/Akt-mTOR and MAPK signaling in U87MG cells; assay type: cell-based, human; conditions: U87MG cells
# Protocol: U87MG which express NRP-2 were used for this assay.
# To determine the effect of SEMA3F on intracellular signaling responses, levels of phosphokinases in the NRP2-expressing human glioblastoma cell line U87MG were profiled.
# Western blotting: Proteins within each sample were separated by SDS-PAGE and transferred to nitrocellulose membranes. The membranes were blocked with 4% skimmed milk in TBS-T (0.1% Tween 20 in tris-buffered saline [TBS]) for 30 minutes, followed by incubation with the primary antibody. After washing with TBS-T, membranes were incubated with the appropriate horseradish peroxidase-conjugated secondary antibody, and immunoreactivity was detected by using ECL detection reagents.
# VEGF = VEGF protein in conditioned media by ELISA, U87MG cells; assay type: cell-based, human
# Text: The VEGF-A (DVE00) ELISA kit was obtained from R&D Systems (Minneapolis, MN). […] Desferrioxamine (DFO) was purchased from Sigma-Aldrich, and the MEK inhibitor (U0126) was purchased from EMD-Millipore (Billerica, MA). pGL4.74 [hRluc/TK] vector (Promega Madison, WI) was used as an internal control in luciferase assay.
# [1] = system: glioblastoma cells and EC; conditions: reference 12; cited from earlier work
# VEGF promoter = VEGF promoter luciferase assay in U87MG cells; assay type: cell-based, human; conditions: DFO 250 μM, 18 hours
# Protocol: FIGS. 31A-31B depict U87MG cells transiently co-transfected with a full-length human VEGF promoter luciferase plasmid and a pGL4.74 [hRluc/TK] plasmid as an internal control. Cells were treated with SEMA3F (640 ng/ml for 30 minutes) prior to the addition of DFO (250 μM) or the culture of cells in a hypoxia chamber (1% 02). After 18 hours, VEGF promoter luciferase activity was analyzed. FIG. 31C depicts a graph of U87MG cells transiently cotransfected with our VEGF promoter luciferase and pGL4.74 [hRluc/TK] plasmids and with either a pcDNA3.1 empty vector or our constitutively active Akt (2DAkt). The cells were treated with SEMA3F for 30 minutes prior to the addition of DFO. After 18 hours, VEGF promoter luciferase activity was analyzed. FIG. 31D depicts a graph of parental U87MG cells treated with SEMA3F, rapamycin (10 nM), Torin 1 (10 nM) alone or in combination as indicated for 30 minutes prior to the addition of DFO, and culture supernatants were collected after 18 hours; VEGF protein levels were analyzed by ELISA. In each panel data are representative of 3 independent experiments. Bar graphs represent the mean±SD of n=3 experiments performed in triplicate, *, p<0.01 vs. control.
# SEMA3F inhibits hypoxia-induced production of VEGF via the mTOR pathway. The local expression and regulation of VEGF is key to many physiological and pathological processes (40, 41). These findings indicate that SEMA3F can target the transcriptional activation of VEGF via its ability to target mTOR kinase activity (36, 42). To test the effect of SEMA3F on the regulation of VEGF expression, U87MG cells were transfected with a full-length 2.6 kb VEGF promoter-luciferase construct and exposed to the hypoxia mimetic agent desferrioxamine (DFO) or hypoxia (1% 02). […] To test the relative effect of SEMA3F on mTORC1/C2, U87MG cells transiently co-transfected with the 2DAkt construct and the full length VEGF promoter reporter construct, and the cells cultured in the absence or presence of SEMA3F. […] Finally, the effect of SEMA3F on the secretion of VEGF into conditioned media (by ELISA) was determined in the absence or presence of DFO.
# Transfection and Luciferase assay: U87MG cells were transiently transfected with plasmid constructs (pcDNA3.1, WT mTOR, 2DAkt, VEGF luciferase reporter plasmid or pGL4.74 [hRluc/TK]) as indicated using Lipofectamine 2000 reagent (Life Technologies) according to the manufacturer's instructions. After 18 hours, cells were treated as outlined in each experimental design. VEGF promoter activity was analyzed using a Dual-Luciferase Reporter Assay System (Promega), and luciferase activity was normalized by Renilla luciferase as an internal control.
# [2] = rapamycin alone 10 nM for 90 minutes, vs untreated
compound,measurement,setting,value
"CO[C@H]1C[C@@H]2CC[C@@H](C)[C@@](O)(O2)C(=O)C(=O)N2CCCC[C@H]2C(=O)O[C@H]([C@H](C)C[C@@H]2CC[C@@H](O)[C@H](OC)C2)CC(=O)[C@H](C)/C=C(\C)[C@@H](O)[C@@H](OC)C(=O)[C@H](C)C[C@H](C)/C=C/C=C/C=C/1C [rapamycin, reference compound]",induction in the level of pAkt (S473),U87MG cells; [2],2.0 fold
same,induction in the level of pAkt (T308),U87MG cells; [2],1.9 fold
CCC(=O)N1CCN(c2ccc(-n3c(=O)ccc4cnc5ccc(-c6cnc7ccccc7c6)cc5c43)cc2C(F)(F)F)CC1 [Torin 1],"VEGF levels, combination of SEMA3F and Torin 1","VEGF; DFO, compared to SEMA3F or Torin 1 alone",slightly (but significantly p<0.05) inhibited VEGF levels
same,DFO-induced VEGF protein secretion,"VEGF; SEMA3F, rapamycin 10 nM or Torin 1 10 nM, 30 minutes prior to DFO, supernatants after 18 hours",significantly reduced
"N#CC(=C(/N)Sc1ccccc1N)/C(C#N)=C(\N)Sc1ccccc1N [U0126, reference compound]",effect of MEK inhibitor on SEMA3F regulation of pAkt,U87MG cells; U0126 10 μM 30 minutes prior to SEMA3F 640 ng/ml,did not modulate
"Cc1ccc(NC(=O)c2ccc(CN3CCN(C)CC3)cc2)cc1Nc1nccc(-c2cccnc2)n1 [Gleevec, imatinib]",SEMA3-mediated loss of stress fiber formation and motility,[1],abrogates SEMA3-mediated loss of stress fiber formation and motility
"CC(=O)N(O)CCCCCNC(=O)CCC(=O)N(O)CCCCCNC(=O)CCC(=O)N(O)CCCCCN [DFO, desferrioxamine, reference compound]",induction of VEGF promoter activity,VEGF promoter,16 fold
same,increase of VEGF production,"VEGF; DFO, compared to untreated cells",160%
